Assay results from patent US20130023485A1, “PARENTERAL FORMULATIONS OF PEPTIDES FOR THE TREATMENT OF SYSTEMATIC LUPUS ERYTHEMATOSUS” (Teva Pharmaceutical Industries, Ltd., priority 2003, published 2013).

Key:
SLE subjects = test: Phase Ia clinical study, single s.c. dose, tolerability and safety; format: in vivo, human
Experimental: Thirty-six (36) subjects participated in the study. To be eligible for inclusion in the study, SLE patients must have fulfilled at least four criteria used for the diagnosis of lupus by the American College of Rheumatology. Patients must also have had stable, mild/moderate disease and score less than or equal to 10 on the SLE Disease Activity Index, SLEDAI. […] A standard battery of safety tests, including blood and urine collection for laboratory tests, was performed at screening, during the day of dosing, at 24 hours post-dose and at 2, 4 and 8 weeks following dosing. Prior to dosing, and on scheduled follow-up visits, blood samples were withdrawn for SLE-related immunological tests, anti-Compound 1 antibodies and PBL proliferation assay. […] The following safety parameters were assessed at Screening, during the hospitalization and at follow-up visits including Termination visit: vital signs (systolic blood pressure, diastolic blood pressure, pulse, oxygen saturation, temperature and weight), 12-lead ECG, change in physical examination and clinical routine laboratory safety tests. Adverse events were recorded at the Dosing Day and at each visit thereafter. SLE-related immunological tests were performed at Screening, during the hospitalization and at follow-up visits including Termination visit. […] Disease activity assessment using the SLE disease activity index score, year 2000 updated (SLEDAI 2K) was assessed at Screening, during the hospitalization and at follow-up visits including Termination visit.

[1] = test system: Compound 1 reference standard (RS) specific T-cells; test: Inhibition of IL-2 secretion from T-cells of immunized mice after s.c. treatment (ELISA); format: in vivo
From the text: The biological activity was monitored by inhibition of IL-2 secretion from Compound 1 reference standard (RS) specific T-cells following subcutaneous (s.c.) treatment with the lyophilized compound solution, i.e. the drug product (DP), at two concentrations. The results of the treatment are compared to those of treating mice with Compound 1 (RS) in phosphate buffered saline (PBS).

[2] = test system: TGF-β secretion by PBL of SLE patients; test: Up-regulation of TGF-β secretion by PBL stimulated with human 16/6Id mAb (ELISA); format: cell-based
Experimental: For this purpose, supernatants were removed from cultures of PBL of various SLE patients following 48 hours incubation with the human 16/6Id mAb in the absence or presence of the peptides hCDR1 or hCDR3. TGF-β was determined by ELISA according to the manufacturer's instructions. Briefly, Maxisorb plates (Nunc) were coated with recombinant human TGFβsRII/Fc chimera (R & D Systems) diluted in PBS (100 ng/ml). After blocking, cell supernatants were added. After 18 hours incubation the detecting biotinylated anti-human TGF-β antibody (R & D Systems) was added. The substrate solution used was the TMB Colour Reagent (Helix Diagnostics) and enzyme activity was evaluated by the MRX ELISA reader using the 570 nm and 630 nm filters.

[3] = Mouse toxicity study of formulation; format: in vivo; details: 30% (w/w) PEG 400 formulation
From the text: Thus, it was decided not to further pursue this formulation. In view of the preliminary experiments non-aqueous solvents were not used in the subject formulations.

[4] = test system: PBL of SLE patients stimulated with phytohemagglutinin (PHA); test: Proliferation of PBL stimulated with mitogen PHA; format: cell-based, human; details: PHA 2 μg/ml; PBL of one SLE patient, FIG. 9
Experimental: To this end the peptides hCDR1 or hCDR3 were added to cultures of PBL of SLE patients that were stimulated with the mitogen phytohemagglutinin (PHA, 2 μg/ml).

[5] = single s.c. 0.5, 1 or 2.5 mg in Captisol®
[6] = treated 50 μg/mouse s.c., activator Compd. 1 RS 5 μg/ml
[7] = treated 50 μg/mouse s.c., activator Compd. 1 RS 10 μg/ml
[8] = treated 50 μg/mouse s.c., activator Compd. 1 RS 25 μg/ml
[9] = treated 50 μg/mouse s.c., activator Compd. 1 RS 50 μg/ml
[10] = treated 50 μg/mouse s.c., activator Compd. 1 RS 100 μg/ml
[11] = treated 50 μg/mouse s.c., activator Compd. 1 RS […]
[12] = treated 200 μg/mouse s.c., activator Compd. 1 RS 5 μg/ml
[13] = treated 200 μg/mouse s.c., activator Compd. 1 RS 10 μg/ml
[14] = treated 200 μg/mouse s.c., activator Compd. 1 RS 25 μg/ml
[15] = treated 200 μg/mouse s.c., activator Compd. 1 RS 50 μg/ml
[16] = treated 200 μg/mouse s.c., activator Compd. 1 RS 100 μg/ml

Which “QTc change from baseline” value (SLE subjects; [5]) does the source give for H-GYYWSWIRQPPGKGEEWIG-OH [Compound 1] here?
Its value is “no QTc change from baseline>60 msec”.

What about the “categorical ECG measurements and digitized ECG parameters versus placebo” value (SLE subjects; [5]) of the same substance?
The value was “No differences of clinical significance”.

And the “hematology, biochemistry or urinalysis values” (SLE subjects; [5])?
Its value is “No clinically significant effect”.

What about the “incidence of AEs versus placebo” value (SLE subjects; [5]) of the same substance?
Its value is “no prominent difference”.

And the physical exam (SLE subjects; [5])?
Its physical exam is “No clinically significant effects”.

And the “serious or severe adverse events” value (SLE subjects; [5])?
The value was “No serious adverse event (SAE) or AE classified as severe occurred”.

And the temperature and weight (SLE subjects; [5])?
Its temperature and weight is “No clinically significant effect”.

And the “vital signs (systolic, diastolic blood pressure, pulse, oxygen saturation)” value (SLE subjects; [5])?
Its value is “No clinically significant effect”.

And the “immunological response to tetanus toxoid (TTX) recall antigen” value (SLE subjects; single s.c. dose in Captisol®)?
Its value is “did not change”.

And the safety and tolerability (SLE subjects; single s.c. dose of 0.5, 1 or 2.5 mg in 120 mg Captisol®)?
The safety and tolerability was “safe and well tolerated”.

And the “Average inhibition (%) (at the range of 5-100 μg/ml)” value ([1]; treated 50 μg/mouse s.c.)?
The value was 45.6%.

And the IL-2 secretion ([1]; treated 50 μg/mouse s.c., activator Compd. 1 RS 0 μg/ml)?
The IL-2 secretion was “BQL”.

What about the IL-2 secretion ([1]; treated 50 μg/mouse s.c., activator Compd. 1 RS 0.5 μg/ml) of the same substance?
The IL-2 secretion was 9 pg/mL.

What about the IL-2 secretion ([1]; treated 50 μg/mouse s.c., activator Compd. 1 RS 1 μg/ml) of the same substance?
The IL-2 secretion was “BQL”.

What about the “% inhib. of IL-2 secretion” value [1, 6] of the same substance?
The value was 55%.

And the IL-2 secretion [1, 6]?
The IL-2 secretion was 9 pg/mL.

And the “% inhib. of IL-2 secretion” value [1, 7]?
Its value is 38%.

What about the IL-2 secretion [1, 7] of the same substance?
Its IL-2 secretion is 16 pg/mL.

What about the “% inhib. of IL-2 secretion” value [1, 8] of the same substance?
Its value is 48%.

What about the IL-2 secretion [1, 8] of the same substance?
The IL-2 secretion was 15 pg/mL.

And the “% inhib. of IL-2 secretion” value [1, 9]?
The value was 47%.

What about the IL-2 secretion [1, 9] of the same substance?
The IL-2 secretion was 21 pg/mL.

What about the “% inhib. of IL-2 secretion” value [1, 10] of the same substance?
The value was 41%.

What about the IL-2 secretion [1, 10] of the same substance?
The IL-2 secretion was 25 pg/mL.

And the “% inhib. of IL-2 secretion” value [1, 11]?
The value was 51%.

And the IL-2 secretion [1, 11]?
The IL-2 secretion was 8 pg/mL.

What about the IL-2 secretion ([1]; treated 50 μg/mouse s.c., activator Con A […]) of the same substance?
Its IL-2 secretion is 6,215 pg/ml.

What about the “Average inhibition (%) (at the range of 5-100 μg/ml)” value ([1]; treated 200 μg/mouse s.c.) of the same substance?
Its value is 60.4%.

And the IL-2 secretion ([1]; treated 200 μg/mouse s.c., activator Compd. 1 RS 0 μg/ml)?
The IL-2 secretion was “BQL”.

And the IL-2 secretion ([1]; treated 200 μg/mouse s.c., activator Compd. 1 RS 0.5 μg/ml)?
Its IL-2 secretion is 10 pg/mL.

And the IL-2 secretion ([1]; treated 200 μg/mouse s.c., activator Compd. 1 RS 1 μg/ml)?
The IL-2 secretion was “BQL”.

And the “% inhib. of IL-2 secretion” value [1, 12]?
Its value is 60%.

And the IL-2 secretion [1, 12]?
The IL-2 secretion was 8 pg/mL.

And the “% inhib. of IL-2 secretion” value [1, 13]?
The value was 58%.

What about the IL-2 secretion [1, 13] of the same substance?
Its IL-2 secretion is 11 pg/mL.

What about the “% inhib. of IL-2 secretion” value [1, 14] of the same substance?
The value was 63%.

What about the IL-2 secretion [1, 14] of the same substance?
The IL-2 secretion was 11 pg/mL.

What about the “% inhib. of IL-2 secretion” value [1, 15] of the same substance?
The value was 62%.

What about the IL-2 secretion [1, 15] of the same substance?
The IL-2 secretion was 15 pg/mL.

And the “% inhib. of IL-2 secretion” value [1, 16]?
The value was 58%.

What about the IL-2 secretion [1, 16] of the same substance?
The IL-2 secretion was 18 pg/mL.

And the IL-2 secretion ([1]; treated 200 μg/mouse s.c., activator Compd. 1 RS […])?
Its IL-2 secretion is “BQL”.

And the IL-2 secretion ([1]; treated 200 μg/mouse s.c., activator Con A […])?
The IL-2 secretion was 5,403 pg/ml.

What about the “Up-Regulation of TGF-β % (patients)” value ([2]; PBL of SLE patients, 48 hours) of the same substance?
Its value is 100 (19/19) %.

And the “secretion of TGF-β” value ([2]; PBL of one representative SLE patient, FIG. 13)?
The value was “significant up-regulation”.

And the “Maximum Up-regulation %” value ([2]; percent secretion above that in the presence of 16/6 Id alone (= 100%))?
Its value is 305 ± 221%.

What about the adverse effects [3] of the same substance?
Its adverse effects is “may have been the cause of some adverse effects”.

And the “inhibition of proliferative responses to mitogen PHA” value [4]?
Its value is “could not inhibit”.
